The numbers were not newly measured in patent publication US20260144768A1, “MODIFIED RELEASE GAMMA-HYDROXYBUTYRATE FORMULATIONS HAVING IMPROVED PHARMACOKINETICS” (Flamel Ireland Limited, priority 2022, published 2026), which cites them from elsewhere.

Read-outs that look alike come from different tables or passages of the source.

The test system of one series is plasma proteins. As to conditions: GHB 3 mcg/mL to 300 mcg/mL.
Experiment in series [1]: not given
This is another data set of the same source.

For series [2], the system named is rat. Conditions: 2-year study.
For another series, the system named is mouse. Conditions: 2-year study.
The subject of the next series is CYP3A. Conditions: up to 3 mM (378 mcg/mL).
Series [3] concerns rats.
Series [4] has as its system rats. This is another data set of the same source.
The next series deals with pregnant rats. Conditions: 150, 350, or 1,000 mg/kg/day oral.
The conditions of series [5]: 6 g per day (2 × 3 g) with ibuprofen 800 mg/dose four times per day.
In the next series the target is CYP2E1 (Homo sapiens, UniProt P05181). Conditions: up to 3 mM (378 mcg/mL).
CYP2E1, sequence (P05181 whole entry): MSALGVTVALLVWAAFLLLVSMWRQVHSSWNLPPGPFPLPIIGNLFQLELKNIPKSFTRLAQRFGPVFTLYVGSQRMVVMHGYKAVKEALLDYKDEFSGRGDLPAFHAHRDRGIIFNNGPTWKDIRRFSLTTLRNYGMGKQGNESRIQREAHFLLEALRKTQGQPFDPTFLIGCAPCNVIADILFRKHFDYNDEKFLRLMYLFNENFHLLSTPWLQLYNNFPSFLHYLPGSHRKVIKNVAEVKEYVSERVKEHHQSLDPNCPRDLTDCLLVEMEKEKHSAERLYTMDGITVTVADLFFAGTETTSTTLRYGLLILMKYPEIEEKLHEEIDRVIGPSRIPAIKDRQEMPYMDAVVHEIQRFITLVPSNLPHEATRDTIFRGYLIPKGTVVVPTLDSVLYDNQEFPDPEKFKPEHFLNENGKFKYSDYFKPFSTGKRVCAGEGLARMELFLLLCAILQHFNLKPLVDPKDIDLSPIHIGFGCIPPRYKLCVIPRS
In series [6] the test system is rat. As to conditions: in vivo.
The subject of the next series is mammalian cells. As to conditions: in vitro.
For the next series, the target named is CYP2C9 (Homo sapiens, UniProt P11712). As to conditions: up to 3 mM (378 mcg/mL).
CYP2C9, sequence (P11712 whole entry): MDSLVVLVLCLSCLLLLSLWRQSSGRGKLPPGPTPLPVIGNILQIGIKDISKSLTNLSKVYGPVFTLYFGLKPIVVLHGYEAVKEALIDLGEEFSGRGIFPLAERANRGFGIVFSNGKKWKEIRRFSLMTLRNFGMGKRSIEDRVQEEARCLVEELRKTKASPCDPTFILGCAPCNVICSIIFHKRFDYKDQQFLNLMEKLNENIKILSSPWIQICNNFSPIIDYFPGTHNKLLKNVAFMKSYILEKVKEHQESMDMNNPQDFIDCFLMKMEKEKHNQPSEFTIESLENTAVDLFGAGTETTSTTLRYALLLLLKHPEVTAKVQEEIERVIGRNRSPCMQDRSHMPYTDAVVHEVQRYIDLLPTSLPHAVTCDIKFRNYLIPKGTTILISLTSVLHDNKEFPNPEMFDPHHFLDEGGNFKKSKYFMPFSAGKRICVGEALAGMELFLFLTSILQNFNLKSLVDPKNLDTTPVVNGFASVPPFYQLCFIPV
The target of a further series is CYP2D6 (Homo sapiens, UniProt P10635). As to conditions: up to 3 mM (378 mcg/mL).
CYP2D6, sequence (P10635 whole entry): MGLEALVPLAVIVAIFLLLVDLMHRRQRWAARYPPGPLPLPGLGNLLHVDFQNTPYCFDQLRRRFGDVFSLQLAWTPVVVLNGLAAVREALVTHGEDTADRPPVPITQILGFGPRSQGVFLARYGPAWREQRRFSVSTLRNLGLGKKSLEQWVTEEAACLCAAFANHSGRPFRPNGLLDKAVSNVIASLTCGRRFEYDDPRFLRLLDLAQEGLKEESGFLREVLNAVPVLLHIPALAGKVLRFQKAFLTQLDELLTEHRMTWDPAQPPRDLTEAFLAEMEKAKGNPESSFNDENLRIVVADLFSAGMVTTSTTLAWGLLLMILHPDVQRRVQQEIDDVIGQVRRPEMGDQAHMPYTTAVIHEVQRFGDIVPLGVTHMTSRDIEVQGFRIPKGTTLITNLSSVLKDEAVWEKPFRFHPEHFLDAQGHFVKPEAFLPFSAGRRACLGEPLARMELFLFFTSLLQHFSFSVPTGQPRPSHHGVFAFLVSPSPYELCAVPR
In a further series the test system is pregnant rabbits. As to conditions: 300, 600, or 1,200 mg/kg/day oral.
In a further series the target is CYP2C19 (Homo sapiens, UniProt P33261). Conditions: up to 3 mM (378 mcg/mL).
CYP2C19, sequence (P33261 whole entry): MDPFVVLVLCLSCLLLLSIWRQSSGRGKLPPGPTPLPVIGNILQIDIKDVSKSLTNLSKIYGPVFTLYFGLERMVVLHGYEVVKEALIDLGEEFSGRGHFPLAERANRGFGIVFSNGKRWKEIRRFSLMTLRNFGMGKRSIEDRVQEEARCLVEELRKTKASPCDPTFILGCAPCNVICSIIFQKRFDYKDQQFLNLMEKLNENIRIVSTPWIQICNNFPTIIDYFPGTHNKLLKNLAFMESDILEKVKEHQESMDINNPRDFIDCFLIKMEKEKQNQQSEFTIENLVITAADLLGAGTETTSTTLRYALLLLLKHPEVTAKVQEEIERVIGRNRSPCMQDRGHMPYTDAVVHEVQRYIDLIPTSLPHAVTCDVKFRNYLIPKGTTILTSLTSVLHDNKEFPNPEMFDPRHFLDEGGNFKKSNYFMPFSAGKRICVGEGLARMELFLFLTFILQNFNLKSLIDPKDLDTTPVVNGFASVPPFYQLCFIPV
The subject of another series is bacterial gene mutation. As to conditions: in vitro.
Series [7] relates to rats. Conditions: 150, 350, or 1,000 mg/kg/day oral.
In a further series the target is T1, CYP1A2 (Homo sapiens, UniProt P05177).
T1 sequence (P05177 1-516): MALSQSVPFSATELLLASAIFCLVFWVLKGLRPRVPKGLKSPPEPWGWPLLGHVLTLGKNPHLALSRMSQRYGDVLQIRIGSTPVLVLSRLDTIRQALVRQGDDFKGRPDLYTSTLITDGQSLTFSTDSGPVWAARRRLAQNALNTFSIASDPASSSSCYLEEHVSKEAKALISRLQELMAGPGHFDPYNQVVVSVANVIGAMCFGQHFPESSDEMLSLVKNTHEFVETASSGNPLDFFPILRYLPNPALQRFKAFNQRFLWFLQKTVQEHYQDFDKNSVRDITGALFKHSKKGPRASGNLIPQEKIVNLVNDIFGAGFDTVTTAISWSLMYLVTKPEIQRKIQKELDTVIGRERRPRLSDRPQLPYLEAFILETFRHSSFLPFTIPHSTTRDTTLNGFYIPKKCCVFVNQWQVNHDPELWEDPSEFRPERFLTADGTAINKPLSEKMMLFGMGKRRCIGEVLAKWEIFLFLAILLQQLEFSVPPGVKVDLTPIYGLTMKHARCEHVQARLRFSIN
Conditions: up to 3 mM (378 mcg/mL).

As for `O=C(O)CCCO` [GHB, gamma-hydroxybutyrate], the “Apparent volume of distribution” value (in vivo) was 0.19 to 0.384 L/kg. Under “in vivo”, the Elimination half-life is 30 to 60 min. Besides, the “Unchanged drug in human urine” value (within 6 to 8 hours after dosing) is listed as “less than 5%”. In addition, the “Bound to plasma proteins” value in the series on plasma proteins is “less than 1%”. Also, the values for the Apparent oral clearance in series [1] (Child's Class A), in [1] (Child's Class C) and in [1] (healthy adults) were 4.5 mL/min/kg, 4.1 mL/min/kg and 9.1 mL/min/kg, respectively. Further, the “Mean t1/2” value in series [1] (Child's Class A) is 32 min; in series [1] (Child's Class C) it was 59 min; in [1] (control patients), 22 min.
With `O=C1CCCO1` [gamma-butyrolactone], the Carcinogenic activity result with rat [2] and in the series with mouse was “no clear evidence of carcinogenic activity” each time.
Regarding `O=C([O-])CCCO.[Na+]` [sodium oxybate, sodium 4-hydroxybutyrate], the “Inhibition of CYP3A activity” value with CYP3A was “does not significantly inhibit”. For the same compound, the Mortality entry with rats [3] (0, 100, 300, or 900 mg/kg/day, two highest doses) is on record as “mortality was observed”. Further, the “Findings at the highest dose tested” value in the series on rats [3] (900 mg/kg/day) was “Reduced body weight gain in males and females and delayed sexual maturation in males”. Moreover, in the series with rats [4] (highest dose tested), the “Plasma exposure (AUC) relative to humans at the MRHD of 9 g per night” value is given as 2 times. The Tumors result with rats [4] (oral doses up to 1,000 mg/kg/day) is “no increase in tumors”. Besides, the Developmental toxicity result with pregnant rats and with pregnant rabbits was “no clear evidence of developmental toxicity” in each case. Also, the “Systemic exposure to GHB on co-administration” value in [5] was “comparable”. For the same compound, the “Inhibition of CYP2E1 activity” value at CYP2E1 was “does not significantly inhibit”. In addition, in the series with rat [6], the Micronucleus result is given as “negative”. Also, the Chromosomal aberration entry with mammalian cells was “negative”. Also, at CYP2C9, the “Inhibition of CYP2C9 activity” value is given as “does not significantly inhibit”. Besides, on CYP2D6, the “Inhibition of CYP2D6 activity” value is “does not significantly inhibit”. Further, the “Inhibition of CYP2C19 activity” value on CYP2C19 was “does not significantly inhibit”. In addition, the Bacterial gene mutation result with bacterial gene mutation was “negative”. Further, the Effects on fertility entry with rats [7] is “no adverse effects on fertility”. For the same compound, the “Inhibition of CYP1A2 activity” value on CYP1A2 is reported as “does not significantly inhibit”.
